Data published in US20230151437A1, “USE OF PROTEIN ASSEMBLIES TO RECORD CELLULAR EVENTS” (President and Fellows of Harvard College, priority 2021, published 2023).

Experiments:
[1] = system: Tet-ON transcription system; assay: Ticker tape recording of DOX activation of the Tet-ON system in HEK cells; format: cell-based
Description: FIGS. 16A-16B show recordings of impulse response of protein expression following pulsed doxycycline (DOX) activation in HEK293T cells. […] Transitions to JF669 at t=0 and to JFX608 at t=8 h provided fiducial timestamps. Transcription was activated via addition of 2 μg/mL DOX at t=−0.5 h, followed by a thorough wash at t=0 h. FIG. 16B provides three representative examples showing the GFP intensity profiles on the protein ticker tapes. Top: representative images. Bottom: fluorescence line profiles. Scale bars: […].
As the first test of a physiological recording, iPAK4 assemblies were used to report on a transcriptional activator, the tetracycline mediated Tet-ON transcription system.^28 HEK cells were co-infected with lentivirus containing CMV::iPAK4 (60%), CMV::rTTA3 (30%), CMV::HT-iPAK4 (5%), and CMV::eGFP-iPAK4 (5%) to establish tetracycline-dependent eGFP-iPAK4 expression (FIG. 4A). After assemblies had nucleated (24 h after lentiviral infection), JF552 was added to label the initial nuclei, and JF669 was added at t=0. In different dishes, doxycycline (DOX, 2 μg/mL) was added at t=2, 4, or 6 h to activate expression of eGFP-iPAK4. Then JF552 was added again at t=8 h, and the assemblies were grown for another 8-14 h before fixation and imaging (FIG. 4B).

[2] = system: cFos promoter; assay: Ticker tape recording of PMA activation of cFos in neurons; format: cell-based, rat
Text: In neurons co-expressing CMV::iPAK4 (90%) and cFos::eGFP-iPAK4 (10%), assemblies initially grew with little green fluorescence. […] Sequential additions of PMA to a single dish led to distinct bands of eGFP fluorescence, clearly resolved by sharp eGFP boundaries (FIG. 5G).
To measure timing of cFos activation relative to fiducial timestamps, CMV::iPAK4 (80%), CMV::HT-iPAK4 (10%), and cFos::eGFP-iPAK4 (10%; FIG. 5E) were co-expressed. The neurons were stained with JF552, and then switched to JF669 at t=0. PMA (1 μM) was then added at t=3, 6, or 9 h, and a second fiducial timestamp was introduced by switching back to JF552 at t=12 h. Assemblies were grown until t=22 h and then fixed and imaged (FIG. 5F).
Chemical activation of neuronal activity: The cFos promoter was activated by phorbol 12-myristate 13-acetate (PMA; Sigma Aldrich P8139). Briefly, the PMA was first diluted with DMSO to form a 1 mM stock solution. At the designated time, 2 μl PMA stock was directly added to each 14 mm glass-bottom culture dish, which contained 2 ml BPNM/SM1 medium. The dishes were then stirred gently to mix the PMA and medium. After PMA addition, the dishes were returned to an incubator at 37° C. with 5% CO2.

[3] = biological target: T1, intracellular HT receptors (HT-NLS) (Rhodococcus rhodochrous, UniProt P0A3G2, A155T/A167V/A172T/A224E/C128F/C176G/D78G/E160K/E257K/H272N/K175M/K195N/L47V/L88M/N227D/P291S/S2A/S58T/T264A/Y273L/Y87F); assay: Kinetics of HT dye labeling in HEK293T cells expressing HT-NLS; format: cell-based; settings: for effective time constant of HT dye labeling: 1 μM dye, HEK293T cells; for first-order reaction rate constant of HT dye labeling: HEK293T cells expressing HT-NLS, 0.1 μM dye, combined membrane permeation and HT reaction
T1 construct: host or cells: HEK293T
T1 sequence (P0A3G2 other isoform, or with tags, fused parts or gaps with the stated changes): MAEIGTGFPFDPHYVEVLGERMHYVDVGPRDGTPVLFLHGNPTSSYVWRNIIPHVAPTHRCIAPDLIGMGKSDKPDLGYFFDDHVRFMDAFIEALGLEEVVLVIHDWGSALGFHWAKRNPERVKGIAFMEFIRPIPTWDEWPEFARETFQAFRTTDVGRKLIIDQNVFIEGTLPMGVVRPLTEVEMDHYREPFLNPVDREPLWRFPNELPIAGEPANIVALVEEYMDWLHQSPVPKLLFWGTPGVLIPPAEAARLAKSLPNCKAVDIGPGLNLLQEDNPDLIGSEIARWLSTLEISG
Description: FIGS. 13A-13C show kinetics of HT dye labeling and turnover in HEK293T cells. […] The sharpness of the dye transition was 7.5 min, as calculated by the width of the peak in the second derivative of fluorescence vs. position (purple). FIGS. 13B-13C show kinetics of HT dye reaction in HEK293T cells. HEK293T cells expressing a nucleus-targeted HT construct (HT-NLS, Addgene #82518) were incubated with 0.1 μM of the indicated dye (FIG. 3B) or 1 μM of the indicated dye (FIG. 3C), and nuclear fluorescence was monitored as a function of time. In FIG. 3B, HT-iPAK4 labeling experiments were performed with 10-fold higher dye concentrations (1 μM).
Dye additions appeared as upward-going kinks in the fluorescence profiles (FIGS. 12D, 13A), which were located as peaks in the second derivative of fluorescence vs. position. By dividing the transition zone widths (full-width at half-maximum of the peak in the second derivative) by the assembly-specific growth rates, a mean transition zone duration of 7.5 min was calculated (FIG. 13A). To determine whether the kinetics of HT dye labeling affected the widths of these transitions, the labeling of intracellular HT receptors was measured with several different HT dyes. These measurements probed the combined effects of membrane permeation and the HT reaction. The first-order reaction rate constants were 2.9 μM^−1 min^−1 (JF525), 0.13 μM^−1 min^−1 (JFX608), and 0.27 μM^−1 min^−1 (JF669) (FIG. 13B). […] The effective time constants at 1 μM dye were: 43 min (JF503), 3.5 min (JF525), 2.0 min (JF552), 12 min (JFX608), and 17 min (JF669) (FIGS. 13A and 13C). The precision of localizing a dye transition in an assembly is not equal to the labeling time constant, but rather the precision with which one can identify the onset of the labeling reaction. For all the JF dyes, this time was much less than 10 min.
Measurements of HT dye labeling kinetics in HEK293T cells: HEK293T cells were transfected with an inducible nuclear-localized HT protein (HT-NLS, Addgene #82518). Doxycycline (DOX, 2 μg/ml) was added 12 h after transfection to induce the expression of HT-NLS. 24 h after transfection, cells were incubated with 0.1 μM of the indicated dye, and nuclear fluorescence was monitored via wide-field epifluorescence microscopy as a function of time.

Question: With `C[C@H]1c2cccc(O)c2C(=O)C2=C(O)[C@]3(O)C(=O)C(C(N)=O)=C(O)[C@@H](N(C)C)[C@@H]3[C@@H](O)[C@@H]21` [DOX, doxycycline] as the compound, how does the “duration of rise of eGFP-iPAK4 expression” value ([1]; 30-minute pulse of DOX) read?
Answer: Its value is “approximately 8 h”.

Question: What about the “window of protein expression” value ([1]; 30-minute pulse of DOX) of the same compound?
Answer: The value was about 14 h.

Question: What about the “offset between DOX addition and start of the green stripe (y-intercept of linear fit)” value ([1]; DOX 2 μg/mL at t=2, 4 or 6 h, HEK cells, N=191 assemblies) of the same compound?
Answer: Its value is 1.2 h.

Question: `CCCCCCCCCCCCCC(=O)O[C@@H]1[C@@H](C)[C@@]2(O)[C@@H](C=C(CO)C[C@]3(O)C(=O)C(C)=C[C@@H]23)[C@@H]2C(C)(C)[C@]12OC(C)=O` [PMA, phorbol 12-myristate 13-acetate] was tested. Which “delay of eGFP onset relative to PMA addition” value ([2]; PMA 1 μM at t=3, 6 or 9 h, neurons, extrapolated fit) did it give?
Answer: The value was 53 min.

Question: What about the “effect on cFos::eGFP-iPAK4 expression” value ([2]; PMA 1 μM, neurons co-expressing CMV::iPAK4 and cFos::eGFP-iPAK4) of the same compound?
Answer: Its value is “bands of bright green fluorescence”.

Question: And the “y-intercept of linear fit of eGFP onset” value ([2]; PMA at t=3, 6 or 9 h, neurons)?
Answer: The value was “ca. 1.0 h”.

Question: How did the “effective time constant of HT dye labeling” value [3] turn out when JF525 [reference compound] was run?
Answer: Its value is 3.5 min.

Question: And the “first-order reaction rate constant of HT dye labeling” value [3]?
Answer: The value was 48300 M⁻¹ s⁻¹.

Question: How did the “effective time constant of HT dye labeling” value [3] turn out when JFX608-HaloTag ligand was run?
Answer: The value was 12 min.

Question: And the “first-order reaction rate constant of HT dye labeling” value [3]?
Answer: The value was 2170 M⁻¹ s⁻¹.
